Data reported in ChEMBL document CHEMBL1152500, “Molecular recognition in the P2Y(14) receptor: Probing the structurally permissive terminal sugar moiety of uridine-5'-diphosphoglucose” (Bioorg Med Chem, 2009).

Columns and labels:
P2Y purinoceptor 14 = target: T1, P2Y purinoceptor 14 (Homo sapiens, UniProt Q15391); test: Agonist activity at human P2Y14 receptor expressed in […] cells; format: functional, cell-based, COS-7
T1 sequence (Q15391 whole entry): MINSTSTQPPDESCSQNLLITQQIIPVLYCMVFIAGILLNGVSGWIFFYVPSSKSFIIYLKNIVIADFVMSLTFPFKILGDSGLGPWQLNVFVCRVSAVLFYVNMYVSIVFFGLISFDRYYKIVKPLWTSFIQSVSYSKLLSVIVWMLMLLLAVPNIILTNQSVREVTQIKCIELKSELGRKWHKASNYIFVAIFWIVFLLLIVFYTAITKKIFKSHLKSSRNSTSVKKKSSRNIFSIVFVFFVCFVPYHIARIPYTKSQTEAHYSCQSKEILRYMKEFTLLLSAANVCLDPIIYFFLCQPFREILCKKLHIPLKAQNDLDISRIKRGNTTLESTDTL

[1] = target: T2, P2Y purinoceptor 14 (Homo sapiens) (UniProt Q15391); test: Agonist activity at human P2Y14 receptor expressed in […] cells at 10 uM; format: functional, cell-based; conditions: COS-7
T2 sequence (whole entry): T1 sequence (Q15391 whole entry)

| EC50 (P2Y purinoceptor 14) [nM] | Efficacy [1] [%] | Structure (SMILES) |
| --- | --- | --- |
| 290 |  | O=c1[nH]c(=S)ccn1[C@@H]1O[C@H](COP(=O)(O)OP(=O)(O)O[C@H]2O[C@H](CO)[C@@H](O)[C@H](O)[C@H]2O)[C@@H](O)[C@H]1O |
| 1880 |  | O=c1ccn([C@@H]2O[C@H](COP(=O)(O)OP(=O)(O)O[C@@H]3[C@H](O)[C@H](O)[C@@H](O)[C@H](O)[C@H]3O)[C@@H](O)[C@H]2O)c(=O)[nH]1 |
| 238 |  | O=c1ccn([C@@H]2O[C@H](COP(=O)(O)OP(=O)(O)OC[C@H]3O[C@H](O)[C@H](O)[C@@H]3O)[C@@H](O)[C@H]2O)c(=O)[nH]1 |
| 567 |  | O=c1ccn([C@@H]2O[C@H](COP(=O)(O)OP(=O)(O)O[C@H]3O[C@H](CO)[C@@H](F)[C@H](O)[C@H]3O)[C@@H](O)[C@H]2O)c(=O)[nH]1 |
|  | < 20 | O=c1ccn([C@@H]2C[C@H](COP(=O)(O)OP(=O)(O)O[C@H]3O[C@H](CO)[C@@H](O)[C@H](O)[C@H]3O)[C@@H](O)[C@H]2O)c(=O)[nH]1 |
| 658 |  | O=c1ccn([C@@H]2O[C@H](COP(=O)(O)OP(=O)(O)OC[C@H]3O[C@H](O)[C@@H](O)[C@@H](O)[C@@H]3O)[C@@H](O)[C@H]2O)c(=O)[nH]1 |
| 496 |  | CC(=O)NCCNC(=O)[C@H]1O[C@H](OP(=O)(O)OP(=O)(O)OC[C@H]2O[C@@H](n3ccc(=O)[nH]c3=O)[C@H](O)[C@@H]2O)[C@H](O)[C@@H](O)[C@@H]1O |
| 361 |  | O=c1ccn([C@@H]2O[C@H](COP(=O)(O)OP(=O)(O)O[C@H]3O[C@H](CO)[C@@H](O)[C@H](F)[C@H]3O)[C@@H](O)[C@H]2O)c(=O)[nH]1 |
|  | < 50 | CC(=O)N[C@@H]1[C@@H](O)[C@H](O)[C@@H](CO)O[C@@H]1CP(=O)(O)OP(=O)(O)OC[C@H]1O[C@@H](n2ccc(=O)[nH]c2=O)[C@H](O)[C@@H]1O |
| 2500 |  | O=c1ccn([C@@H]2O[C@H](COP(=O)(O)OP(=O)(O)O[C@H]3O[C@H](CO)[C@@H](O)[C@H](O)[C@H]3F)[C@@H](O)[C@H]2O)c(=O)[nH]1 |
|  | < 50 | CO/N=c1/ccn([C@@H]2O[C@H](COP(=O)(O)OP(=O)(O)O[C@H]3O[C@H](CO)[C@@H](O)[C@H](O)[C@H]3O)[C@@H](O)[C@H]2O)c(=O)[nH]1 |
|  | < 50 | O=c1ccn([C@@H]2O[C@H](COP(=O)(O)OP(=O)(O)OC[C@H]3O[C@H](O)C[C@@H](O)[C@@H]3O)[C@@H](O)[C@H]2O)c(=O)[nH]1 |
| 323 |  | O=c1ccn([C@@H]2O[C@H](COP(=O)(O)OP(=O)(O)OC[C@H]3O[C@](O)(CO)[C@@H](O)[C@@H]3O)[C@@H](O)[C@H]2O)c(=O)[nH]1 |
| 460 |  | O=c1ccn([C@@H]2O[C@H](COP(=O)(O)OP(=O)(O)OC[C@H]3O[C@H](O)[C@@H](O)[C@@H]3O)[C@@H](O)[C@H]2O)c(=O)[nH]1 |
| 562 |  | C[C@H]1O[C@H](OP(=O)(O)OP(=O)(O)OC[C@H]2O[C@@H](n3ccc(=O)[nH]c3=O)[C@H](O)[C@@H]2O)[C@H](O)[C@@H](O)[C@H]1O |
| 905 |  | O=c1ccn([C@@H]2O[C@H](COP(=O)(O)OP(=O)(O)O[C@H]3O[C@H](CF)[C@@H](O)[C@H](O)[C@H]3O)[C@@H](O)[C@H]2O)c(=O)[nH]1 |
| 951 |  | CC(C)(C)OC(=O)NCCNC(=O)[C@H]1O[C@H](OP(=O)(O)OP(=O)(O)OC[C@H]2O[C@@H](n3ccc(=O)[nH]c3=O)[C@H](O)[C@@H]2O)[C@H](O)[C@@H](O)[C@@H]1O |
| 373 |  | O=c1ccn([C@@H]2O[C@H](COP(=O)(O)OP(=O)(O)OC[C@H]3O[C@H](O)[C@H](O)[C@@H](O)[C@@H]3O)[C@@H](O)[C@H]2O)c(=O)[nH]1 |
